Data on eight compounds can be found in ChEMBL document CHEMBL6087455 (Eur J Med Chem, 2025).

One data set concerns the target T1, Acetylcholinesterase (Rattus norvegicus, UniProt P37136).
T1 sequence (P37136 whole entry): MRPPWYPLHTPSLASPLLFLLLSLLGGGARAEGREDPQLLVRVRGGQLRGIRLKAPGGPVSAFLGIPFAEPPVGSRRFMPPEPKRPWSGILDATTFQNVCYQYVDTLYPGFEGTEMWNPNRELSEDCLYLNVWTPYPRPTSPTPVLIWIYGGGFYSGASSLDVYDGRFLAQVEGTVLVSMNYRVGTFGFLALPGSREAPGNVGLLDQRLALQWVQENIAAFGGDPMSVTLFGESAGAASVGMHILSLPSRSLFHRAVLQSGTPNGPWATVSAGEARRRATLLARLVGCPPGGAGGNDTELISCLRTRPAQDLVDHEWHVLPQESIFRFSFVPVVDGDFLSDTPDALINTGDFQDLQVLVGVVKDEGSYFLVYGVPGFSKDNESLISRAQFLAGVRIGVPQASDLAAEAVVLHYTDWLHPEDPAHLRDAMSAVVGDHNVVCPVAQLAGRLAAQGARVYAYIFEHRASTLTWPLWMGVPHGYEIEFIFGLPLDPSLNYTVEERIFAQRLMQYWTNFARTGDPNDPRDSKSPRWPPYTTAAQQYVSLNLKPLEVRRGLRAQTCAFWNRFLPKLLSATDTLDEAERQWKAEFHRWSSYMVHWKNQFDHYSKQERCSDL
Nature of the data set: Inhibition of wistar rat brain AChE using acetylthiocholine iodide as substrate preincubated for 10 mins followed by substrate addition and measured after 5 mins by DTNB reagent based spectrophotometric Ellman's method.

Data set [1] concerns BV-2. The experiment in a line: Neuroprotective activity against LPS-induced neuronal damage in mouse BV-2 cells assessed as cell viability at 1 uM preincubated with compound for 1 hrs followed by LPS addition and measured after 24 hrs by Muse cell analyzer (reference value: 79.2 +/- 1.1 %). Type of data set: functional. The note with it: time 25 hrs, read-out: Activity.
For data set [2], the system named is BV-2. The experiment in a line: Antioxidant activity in LPS-induced mouse BV-2 cells assessed as reduction in ROS production at 1 uM preincubated with compound for 1 hrs followed by LPS addition and measured after 24 hrs by Muse cell analyzer relative to control. The class given is functional. Details: scale not given: the % may be the effect or the level left.

Data set [3] addresses Amyloid-beta precursor protein (Homo sapiens) (UniProt P05067). The experiment in a line: Inhibition of amyloid beta (1 to 42) (unknown origin) self aggregation at 10 uM preincubated with compound for 24 hrs followed by compound washout and measured after 24 hrs by ThT fluorescence based spectrophotometric analysis.
Data set [4] has as its system A549. Nature of the data set: Cytotoxicity against human A549 cells transfected with LC3-GFP plasmid assessed as decrease in cell number upto 10 uM. The settings on record: a549, 10 µM. The class given is toxicity, cell-based.
A short description of data set [5]: Neuroprotective activity against LPS/TNF-alpha-induced damage in human neuronal like cells assessed as restoration of cell function at 10 uM preincubated with compounds for 72 hrs followed by compound washout and measured after 16 hrs of LPS/TNF-alpha addition by MTS assay relative to control. The class given is functional.
Data set [6] has as its system Caenorhabditis elegans. The experiment in a line: Anti-alzheimer activity in amyloid-beta aggregation induced Caenorhabditis elegans GMC101 assessed as increase in worm motility at 10 uM administered from day 4 of adulthood and measured on day 5 to 7. Type of data set: functional, organism-based. The settings on record: time 4.0 day.
A short description of data set [7]: Induction of H2S release in PBS at pH 7.4 assessed as H2S concentration at 1 mM measured after 30 mins in presence of L-cysteine by Apollo-4000 free radical analyzer. The class given is functional.
Data set [8] deals with A549. The experiment in a line: Induction of autophagy in human A549 cells transfected with LC3-GFP plasmid assessed as increase in number of LC3 puncta at >3 uM measured after 24 hrs by high-content confocal microscopic analysis. The class given is functional, cell-based.
Data set [9] has as its system A549. Nature of the data set: Induction of autophagy in human A549 cells assessed as increase in LC3-II level at >3 uM measured after 24 hrs by Western blotting analysis. The class given is functional, cell-based.
The test system of data set [10] is Caenorhabditis elegans. Nature of the data set: Anti-alzheimer activity in amyloid-beta aggregation induced Caenorhabditis elegans GMC101 assessed as increase in worm fitness at 10 uM administered from day 4 of adulthood and measured on day 7 relative to control. Type of data set: functional. The note with it: time 4 day.
Data set [11] has as its system Neuronal like cell. Nature of the data set: Antioxidant activity in human neuronal like cells assessed as reduction in LPS/TNF-alpha-induced ROS production at 10 uM preincubated with compound for 24 hrs followed by compound washout and measured after 16 hrs of LPS/TNF-alpha addition by H2DCF-DA based fluorescence analysis. Type of data set: functional.
The subject of data set [12] is Caenorhabditis elegans. Nature of the data set: Anti-alzheimer activity in amyloid-beta aggregation induced Caenorhabditis elegans GMC101 assessed as improvement in speed of worm movement at 10 uM administered from day 4 of adulthood and measured on day 7. The class given is functional, organism-based. The note with it: time 4.0 day.
The test system of data set [13] is Caenorhabditis elegans. The experiment in a line: Anti-alzheimer activity in amyloid-beta aggregation induced Caenorhabditis elegans GMC101 assessed as improvement in displacement per bend of worm at 10 uM administered from day 4 of adulthood and measured on day 7. The class given is functional, organism-based. The settings on record: time 4.0 day.
The subject of data set [14] is Neuronal like cell. The experiment in a line: Neuroprotective activity against LPS/TNF-alpha-induced damage in human neuronal like cells assessed as increase in cell proliferation at 10 uM preincubated with compounds for 24 hrs followed by compound washout and measured after 16 hrs of LPS/TNF-alpha addition by MTS assay. Type of data set: functional, cell-based.
The subject of data set [15] is A549. The experiment in a line: Induction of autophagy in human A549 cells assessed as decrease in p62 level at >3 uM measured after 24 hrs by Western blotting analysis relative to control. Details: scale not given: the % may be the effect or the level left. The class given is functional.
Data set [16] has as its system BV-2. Nature of the data set: Neuroprotective activity against LPS-induced neuronal damage in mouse BV-2 cells assessed as increase in cell viability at 1 uM preincubated with compound for 1 hrs followed by LPS addition and measured after 24 hrs by Muse cell analyzer. The settings on record: time 25.0 hrs. Type of data set: functional, cell-based.

Calls of active or inactive are those of the source. No cut-off for these calls is given here.

Chain of Amyloid-beta precursor protein (Homo sapiens) (P05067 whole entry): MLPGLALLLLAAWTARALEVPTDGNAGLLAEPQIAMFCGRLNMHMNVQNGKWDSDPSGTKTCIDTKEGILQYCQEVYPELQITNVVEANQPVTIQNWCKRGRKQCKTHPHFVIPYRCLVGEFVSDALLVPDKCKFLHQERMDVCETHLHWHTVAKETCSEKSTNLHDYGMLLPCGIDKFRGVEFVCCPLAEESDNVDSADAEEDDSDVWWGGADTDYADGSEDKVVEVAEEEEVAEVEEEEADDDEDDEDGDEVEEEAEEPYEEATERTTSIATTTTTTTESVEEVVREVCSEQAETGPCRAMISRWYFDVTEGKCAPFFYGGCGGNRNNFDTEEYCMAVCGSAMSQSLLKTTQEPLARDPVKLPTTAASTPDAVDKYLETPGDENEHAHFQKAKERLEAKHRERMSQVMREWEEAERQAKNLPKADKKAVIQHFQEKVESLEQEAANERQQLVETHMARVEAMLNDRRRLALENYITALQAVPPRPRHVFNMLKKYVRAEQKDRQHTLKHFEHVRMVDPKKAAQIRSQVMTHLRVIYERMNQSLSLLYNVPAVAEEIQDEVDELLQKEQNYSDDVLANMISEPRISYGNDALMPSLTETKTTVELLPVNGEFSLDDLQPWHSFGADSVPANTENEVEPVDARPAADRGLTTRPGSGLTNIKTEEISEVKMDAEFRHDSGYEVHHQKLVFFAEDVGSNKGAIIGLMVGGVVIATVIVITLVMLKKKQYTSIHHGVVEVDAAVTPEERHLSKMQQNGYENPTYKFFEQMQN

On Acetylcholinesterase, `CCN(C)C(=O)Oc1cccc(N=C=S)c1` showed an IC50 of 870 nM. Besides, in the data set on BV-2 [1], the viability at 1 µM was 85.5%. Further, the Activity in the data set with BV-2 [2] (time 25 hrs) turned out to be 10%.

At Acetylcholinesterase, `CCN(C)C(=O)Oc1cccc(C(N)=S)c1` displayed an IC50 of 440 nM. The viability at 1 µM in the data set with BV-2 [1] was 85.7%. For the same compound, the inhibition result in [3] is recorded as “Active; Comparable Activity With Nahs Observed”. Further, the Activity entry with A549 [4] was “Non-toxic”; in data set [5], 100%; in data set [7] it was 10 µM; with Caenorhabditis elegans [10], 10.5%; in the data set on Caenorhabditis elegans [12] it was “Active; Slight Effect Observed”; with A549 [15], roughly 50%. Moreover, in the data set on BV-2 [2] (time 25 hrs), the Activity was 23%. For the same compound, the result in the data set on Caenorhabditis elegans [6], in the data set on A549 [8], in the data set with A549 [9], with Neuronal like cell [11], in the data set with Caenorhabditis elegans [13] and in the data set with Neuronal like cell [14] was Active.

For `[Na+].[SH-]` [SODIUM HYDROSULFIDE], the viability at 1 µM in the data set with BV-2 [1] was determined as 87.2%. In addition, in the data set with BV-2 [2] (time 25 hrs), the Activity is reported as 27%.

Turning to `CCN(C)C(=O)Oc1cccc([C@H](C)N(C)C)c1` [RIVASTIGMINE], in the data set with BV-2 [1], the viability at 1 µM was 84.1%. For the same compound, the Activity in the data set with BV-2 [2] (time 25 hrs) was roughly 10%.

The compound `CCN(C)C(=O)Oc1cccc(CN=C=S)c1` showed a half-maximal inhibitory concentration (IC50) against Acetylcholinesterase of 2190 nM. For the same compound, the viability at 1 µM in the data set on BV-2 [1] came to 85.3%. For the same compound, the Activity in the data set with BV-2 [2] (time 25 hrs) was determined as 10%.

Regarding `CCN(C)C(=O)Oc1cccc(CCN=C=S)c1`, at Acetylcholinesterase, half-maximal inhibition (IC50) required 1370 nM. Further, in the data set with BV-2 [16], the outcome was inactive. Besides, the Activity with BV-2 [2] (time 25 hrs) is 10%.

At Acetylcholinesterase, `CCN(C)C(=O)Oc1cccc(NC(=O)c2ccc(N=C=S)cc2)c1` returned an IC50 of 510 nM. In the data set with BV-2 [16], the result was inactive. Further, the Activity with BV-2 [2] (time 25 hrs) amounted to 10%.

At Acetylcholinesterase, `CCN(C)C(=O)Oc1cccc(NC(=O)COc2ccc(-c3cc(=S)ss3)cc2)c1` gave a half-inhibitory concentration (IC50) of 410 nM. For the same compound, the result in the data set with BV-2 [16] and in the data set on BV-2 [2] (time 25.0 hrs) was inactive.
